Melting point data for 63 compounds are collected here from a melting point compilation (Tetko et al.; mined from patent text by program, amines drawn as free bases though some values may be those of a salt).

Structures are written as SMILES.

On to `O=S1(=O)NCCN(C2CC2)c2ccc(Oc3ccccc3)cc21`, for which the melting point (commonly the temperature of the solid-liquid transition) came to 119 °C.

On to `Cn1c(-c2ccc(-c3cccs3)cc2)cnc1[C@H](Cc1ccccn1)N(C=O)c1cc2cc(Cl)ccc2o1`, for which the melting point is 110 to 114 °C. For the compound `CC(C)(C(=O)O)c1cccc(OCc2ccccc2)c1`, the melting point lay within 114 to 116 °C. In the case of `CC(=O)OCC1CC(n2c(Br)nc3cc(Cl)c(Cl)cc32)C(OC(C)=O)C1OC(C)=O` (stereo not drawn), the melting point is 156 to 159 °C. For the compound `Nc1ccccc1C(=O)Nc1ccc(C(F)(F)F)cc1`, the melting point fell in the range of 160 to 161 °C.

`COc1cc(OCC2CC2)c(/C=C/C(=O)c2ccc(C(=O)O)cc2)cc1-c1cccs1` returned a melting point of 187 to 191 °C. As for `CCOC(=O)COc1c(F)cc(S(=O)CCNS(=O)(=O)c2ccc(Cl)cc2)cc1F` (stereo not drawn), the figure is 137 to 138 °C; as for `CC(C)(C)N=NC(C)(C)SC#N`, 29 to 31 °C. As for `COC(=O)c1ccc(C#CC(=O)c2ccc3c(c2)C(C)(C)CCC3)cc1O`, the figure is 114 to 116 °C. For `NCc1ccn(C2=CC3=C(CC2)CCc2[nH]c(=O)c(=O)n(CC(=O)O)c23)c1`, the melting point was above 250 °C. As for `COCOc1ccc([N+](=O)[O-])c(C=O)c1`, the figure is 68 to 69 °C; as for `O=C(Nc1ccccn1)Nc1cnns1`, 227 °C; as for `O=C(O)C12CCCC(C1)C1CCC2C1` (stereo not drawn), 158 to 160 °C.

`COc1cccc(CC(=O)O)c1OCCCn1cc(C(=O)NCc2ccc(Cl)cc2Cl)c(OC(C)C)n1` displayed a melting point of 134 to 135 °C. As for `Cc1nn(C)c(OCC(=O)c2ccccc2)c1C(=O)c1ccc(Cl)c(C)c1Cl`, the figure is 150 to 152 °C.

`CCCCc1nc2c(N)nc3cccnc3c2n1CCCCNC(=O)c1ccc(C(OCCN(C)C)c2ccccc2)cc1` (stereo not drawn) came in with a melting point of 105 to 108 °C. As for `CCCOc1ccc(S(C)(=O)=O)cc1-c1nc2c(CC)n[nH]c2c(=O)[nH]1`, the figure is 276 to 277 °C; as for `CC(=O)n1[nH]c(=O)n(-c2ccccc2)c1=O`, 215 to 218 °C. With `CC(=Cc1c2n(c3ccncc13)CCC2)[N+](=O)[O-]`, the melting point was 141 to 142 °C. Under `COc1cc(C)c2c(Cl)c(OC)ccc2n1` stands 97 to 100 °C; under `CC(C)(C)OC(=O)NC1CCCC2(CCCC2)NC1=O` (stereo not drawn), 180 to 181 °C; under `CC(=O)C(C(C)=O)c1ccccc1`, 40 to 52 °C. The compound `Nc1ccc(OC(F)(F)F)cc1` registered a melting point of 63.5 °C. Turning to `CCCCNc1cc2c(cc1[N+](=O)[O-])OCO2`, the melting point turned out to be 137 °C.

With `COC(=O)[C@@H]1CCCN1S(=O)(=O)c1ccc(Cl)c(COc2cccc3c(C)cc(C)nc23)c1Cl`, the melting point amounted to 138 °C. Under `Fc1ccccc1-c1nnc(-c2ccccc2C(F)(F)F)o1` stands 68 to 69 °C; under `O=C(Cl)N1CC(Oc2cccc(C(F)(F)F)c2)C1`, 72.5 to 74 °C; under `Cc1nc(Cn2c(=O)sc3cc(F)c([N+](=O)[O-])cc32)no1`, 192 to 193 °C. `Cc1oc(C=Cc2ccc(Cl)cc2)nc1C(=O)O` showed a melting point of 244 to 245 °C. As for `O=S1CCN(c2nc(N3CCOCC3)nc(-n3c(C(F)F)nc4ccccc43)n2)CC1`, the figure is 225 to 226 °C; as for `CN1C(=O)CC2(CC1=O)c1ccccc1Oc1ccccc12`, 148 to 149 °C. Take `CC(C)n1c(CCC2C[C@@H](O)CC(=O)O2)c(-c2ccc(F)cc2)c(-c2ccccc2)c1C(=O)Nc1ccc(F)cc1` (stereo partly drawn): the melting point was 98 to 99 °C. `CN1CCN(c2cc3c(Cl)cccc3c(=O)[nH]2)CC1CO` (stereo not drawn) gave a melting point of 212 to 214 °C. Under `CCOc1cc2c(c(Cl)c1O)Sc1ccccc1N2` stands 186 to 189 °C; under `FC(F)(F)COc1cccc(-c2ccc3nnn(Cc4ccc5ncccc5c4)c3n2)c1`, 151 to 154 °C. Compound `CCOC(=O)C1(CNC(=O)C=CC(Cc2ccc3ccccc3c2)N(C)C(=O)c2cc(C(F)(F)F)cc(C(F)(F)F)c2)CCCC1` (stereo not drawn) displayed a melting point of 136 to 138 °C. As for `Cc1ccc(C2CC(=O)c3c(C)coc3C2)cc1` (stereo not drawn), the figure is 113 to 114 °C; as for `CCC(C)C(NC(=O)N1CCCCCC1)C(=O)NC(Cc1ccc(OCc2ccccc2)cc1)C(=O)OC(C)(C)C` (stereo not drawn), 53 to 57 °C; as for `c1ccc(NC[C@@H]2N[C@H]2c2ccccc2)cc1` (relative stereo), 96 to 97 °C. As for `COc1cc2c(cn1)OCC21C(=O)N(CC2CCOCC2)c2ccccc21` (stereo not drawn), the figure is 84 to 85 °C; as for `CC(C)CNCC(O)c1cc(C(F)(F)F)nc2c(C(F)(F)F)cccc12` (stereo not drawn), 132 °C; as for `CC(=O)NCC1CN(c2ccc(N3CCN(c4nc5ccc([N+](=O)[O-])cc5s4)CC3)c(F)c2)C(=O)O1` (stereo not drawn), 216 to 217 °C. As for `COc1cc(OC)c2c(=O)[nH]c(-c3ccc(CN4CCOCC4)cc3)nc2c1`, the figure is 206 to 208 °C; as for `CNC(=S)N(C)c1ccc(Cl)nc1`, 87.5 to 88 °C. For the compound `CON1C(C)(C)CC(OC(=O)c2cccc(C(=O)OC3CC(C)(C)N(OC)C(C)(C)C3)c2)CC1(C)C`, the melting point lay within 99 to 101 °C. As for `O=C(CCc1cccnc1)NC(Cc1c[nH]c2ccccc12)C(=O)CCc1cc(C(F)(F)F)cc(C(F)(F)F)c1` (stereo not drawn), the figure is 123 to 124 °C; as for `Cc1cccc(C(O)COc2ccc(CC3SC(=O)NC3=O)cc2)n1` (stereo not drawn), 154 to 155 °C. As for `Cc1cccc2cc3c(=O)n(CC(F)(F)F)cc(C(=O)NCCN(C)C)c3nc12`, the figure is 227 to 230 °C; as for `CSc1ccc(O)cn1`, 133 °C. Under `O=[N+]([O-])c1c(NCCCO)cc(NCCCO)cc1NCCCO` stands 150 °C; under `CN(C)CCOC(=O)c1cnn2c(-c3cccc(C(F)(F)F)c3)ccnc12`, 119 to 120 °C. The compound `NC(=O)Cc1ccc2c(c1)C(=O)Cc1cccnc1O2` returned a melting point of 214 to 217 °C. Under `CN(C)c1ncnc2c(NC3OC(CO)C(O)C3O)ncnc12` (stereo not drawn) stands 231 °C; under `CCCC(C(C)=CC(CNC(=O)c1cccnc1)=NO)[N+](=O)[O-]` (stereo not drawn), 128 to 131 °C; under `CCCNc1ccc(C(=O)O)cc1[N+](=O)[O-]`, 208 °C.

`CCc1cn(C2CC(O)C(CN=[N+]=[N-])O2)c(=O)nc1NC(=O)c1ccccc1` (stereo not drawn) showed a melting point of 125 to 126 °C.

In the case of `CN1CCN(C)c2c(cccc2[N+](=O)[O-])C1=O`, the melting point is 146 to 147 °C.

For `CC(=O)C1=C(C)NC2=C(C(=O)CCC2)C1c1cccc([N+](=O)[O-])c1` (stereo not drawn), the melting point is above 250 °C. As for `N#CCc1cccc2nnsc12`, the figure is 78 to 80 °C; as for `CC(C)(C)OC(=O)CC1(C(=O)OCc2ccccc2)C(=O)N(Cc2ccc(Cl)c(Cl)c2)C(=O)c2cccn21` (stereo not drawn), 86 to 88 °C. Under `CNC(=O)c1cc(C(=O)c2ccccc2)ccc1N` stands 140 °C.

The compound `CC(C)c1cccc(C(C)C)c1NC(=O)NCC1(Nc2ccc(I)cc2)CCCC1` showed a melting point of 176 °C. In the case of `CC(C)(O)CC(O)c1cccc(OCc2ccc3ccccc3n2)c1` (stereo not drawn), the melting point is 117 to 124 °C.
